This is an account of results in patent US20220280469A1, “PHARMACEUTICAL COMPOUND AND PREPARATION METHOD THEREFOR AND USE THEREOF” (priority 2019, published 2022).

Data set [1] can be described thus: Pharmacokinetics and tumor targeting of Pt in tumor tissue of pancreatic cancer orthotopic transplantation model mice. In kind it is in vivo, mouse. Conditions: 8 mg/kg. On the procedure:
Mouse pancreatic cancer cells transfected with luciferase reporter genes were used to prepare mouse pancreatic cancer orthotopic transplantation models. The tumor volume of the mice were determined by injecting […] into tail veins, and the mice with similar tumor volume were selected for evaluation of systemic PK and tumor-targeting property. […] Pharmacokinetic parameters were calculated using PK Solver 2.0.

Data set [2] deals with MIA PaCa-2 pancreas orthotopic transplantation tumor. Briefly: Kaplan-Meier survival in MIA PaCa-2 pancreas orthotopic transplantation model. Conditions: once every 7 days, three times.
Method: Pancreas of BALB/c nude mice was transplanted orthotopically with Mia paca-2 cells (reporter gene: luciferase) to prepare pancreatic cancer transplantation in situ models, and then the mice were randomly divided into 4 groups with 6 mice in each, and administered with drugs 10 days after the models were established. […] The drugs were administered once every 7 days, three times in total. The mice were weighed every other day, and the survival state of the mice was recorded. Kaplan-Meier survival curves were drawn to examine the influence of different drug treatments on the survival state of the mice.
Data set [3] deals with PANC-1 subcutaneous transplantation tumor. As to the kind of experiment: Anti-tumor effect in PANC-1 subcutaneous transplantation tumor model. In kind it is in vivo, BALB/c Nude mouse. Conditions: 4 mg/kg cisplatin (effective dose), once a week, 4 times. The procedure:
The human pancreatic cancer cell strain PANC-1 was cultured in a DMEM high-glucose medium containing 10% FBS. Before being used, the cells were digested with pancreatin and centrifuged for 3 min at 800 r·min^−1 to remove the supernatant. The cells were resuspended in a serum-free DMEM medium, matrigel was added at a ratio of 1:1, and the number of the cells was adjusted to 5×10^6/mL. The cell suspension was inoculated subcutaneously to the right thigh at 100 μL/mouse. […] The tumor-bearing mice were randomly divided into 5 groups with 6 mice in each. […] The drugs were administered via tail vein injection. The administration was performed once a week, 4 times in total. The long (l) and short (r) diameters of the tumors were measured with a vernier caliper every other day to calculate tumor volume. All mice were sacrificed on day 11 after the administration cycle was completed, and they were dissected to get the tumors, which were then weighed. The tumor volume calculation formula was as follows: V=(l×r^2)/2.

Turning to `N.N.[Cl][Pt][Cl]` [cisplatin, cis-diamminedichloroplatinum], the “ID% (drug amount at a tumor site x 100%/injected drug amount)” value in data set [1] was “less than 5%”. Also, the “body weight of the mice in the whole treatment process” value in data set [2] is on record as “significantly reduced”. Also, the “body weight of the mice during the administration process” value in data set [3] is given as “remarkably decreased”. Moreover, the “inhibition of PANC-1 subcutaneous transplantation tumor (tumor volume, tumor weight)” value in data set [3] (tail vein) is on record as “no significant inhibition effect”.
